Results from ChEMBL document CHEMBL1781922, “Synthesis, biological evaluation, and molecular docking study of 3-(3'-heteroatom substituted-2'-hydroxy-1'-propyloxy) xanthone analogues as novel topoisomerase IIα catalytic inhibitor” (Eur J Med Chem, 2011).
Structures can show the parent of a compound that is named as a salt. The source made the active and inactive calls. The calls are words filed in the database; no cut-off is given here.

How the values were obtained:
DU-145 = experiment: Cytotoxicity against human DU145 cells after 2 days; assay type: functional, cell-based; settings: DU-145, 48 h
HCT-116 = experiment: Cytotoxicity against human HCT116 cells after 2 days; assay type: functional, cell-based; settings: HCT-116, 48 h
HL-60 = experiment: Cytotoxicity against human HL60 cells after 2 days; assay type: functional, cell-based; settings: HL-60, 48 h
[1] = target: DNA topoisomerase 2-alpha (Homo sapiens) (UniProt P11388); experiment: Inhibition of human topoisomerase 2alpha-mediated relaxation of supercoiled pBR322 DNA at 100 uM after 30 mins using ethidium bromide staining by transillumination analysis
[2] = target: DNA topoisomerase 2-alpha (Homo sapiens) (UniProt P11388); experiment: Inhibition of human topoisomerase 2alpha-mediated relaxation of supercoiled pBR322 DNA at 20 uM after 30 mins using ethidium bromide staining by transillumination analysis
[3] = target: DNA topoisomerase 2-alpha (Homo sapiens) (UniProt P11388); experiment: Inhibition of human topoisomerase 2alpha-mediated relaxation of supercoiled pBR322 DNA at 10 uM after 30 mins using ethidium bromide staining by transillumination analysis
MDA-MB-231 = experiment: Cytotoxicity against human MDA-MB-231 cells after 2 days; settings: MDA-MB-231, 48 h
[4] = target: T1, DNA topoisomerase 1 (Homo sapiens) (UniProt P11387); experiment: Inhibition of human recombinant topoisomerase 1-mediated relaxation of supercoiled pBR322 DNA at 20 uM after 30 mins using ethidium bromide staining by transillumination analysis
T1 sequence (whole entry): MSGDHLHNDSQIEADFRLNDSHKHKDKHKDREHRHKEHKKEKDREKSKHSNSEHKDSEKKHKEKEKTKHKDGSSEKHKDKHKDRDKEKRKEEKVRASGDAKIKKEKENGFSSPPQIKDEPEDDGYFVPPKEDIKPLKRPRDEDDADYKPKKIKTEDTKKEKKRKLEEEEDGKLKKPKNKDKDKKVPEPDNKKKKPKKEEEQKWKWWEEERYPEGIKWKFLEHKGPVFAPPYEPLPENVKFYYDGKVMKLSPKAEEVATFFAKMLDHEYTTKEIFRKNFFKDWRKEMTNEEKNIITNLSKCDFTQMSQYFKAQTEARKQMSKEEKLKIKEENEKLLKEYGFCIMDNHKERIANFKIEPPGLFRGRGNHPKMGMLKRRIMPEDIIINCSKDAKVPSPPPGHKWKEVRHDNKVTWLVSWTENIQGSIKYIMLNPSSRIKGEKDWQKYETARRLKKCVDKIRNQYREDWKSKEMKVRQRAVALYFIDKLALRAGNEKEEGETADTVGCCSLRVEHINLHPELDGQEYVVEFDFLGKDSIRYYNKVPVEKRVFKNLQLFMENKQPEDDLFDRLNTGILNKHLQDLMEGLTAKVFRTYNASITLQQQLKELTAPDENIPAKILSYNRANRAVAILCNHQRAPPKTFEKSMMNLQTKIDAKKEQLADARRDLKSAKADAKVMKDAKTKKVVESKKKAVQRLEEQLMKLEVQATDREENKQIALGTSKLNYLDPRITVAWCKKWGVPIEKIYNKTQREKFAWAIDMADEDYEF

HeLa = experiment: Cytotoxicity against human HeLa cells after 2 days; settings: 48 h
[5] = target: DNA topoisomerase 2-alpha (Homo sapiens) (UniProt P11388); experiment: Inhibition of human topoisomerase 2alpha-mediated relaxation of pUC18 DNA at 400 uM after 30 mins by malachite green ATPase assay in presence of 1 to 4 mM of ATP
[6] = target: DNA topoisomerase 2-alpha (Homo sapiens) (UniProt P11388); experiment: Inhibition of human topoisomerase 2alpha-mediated ATP hydrolysis at 400 uM after 30 mins by malachite green ATPase assay

DNA topoisomerase 2-alpha (Homo sapiens), sequence (P11388 whole entry): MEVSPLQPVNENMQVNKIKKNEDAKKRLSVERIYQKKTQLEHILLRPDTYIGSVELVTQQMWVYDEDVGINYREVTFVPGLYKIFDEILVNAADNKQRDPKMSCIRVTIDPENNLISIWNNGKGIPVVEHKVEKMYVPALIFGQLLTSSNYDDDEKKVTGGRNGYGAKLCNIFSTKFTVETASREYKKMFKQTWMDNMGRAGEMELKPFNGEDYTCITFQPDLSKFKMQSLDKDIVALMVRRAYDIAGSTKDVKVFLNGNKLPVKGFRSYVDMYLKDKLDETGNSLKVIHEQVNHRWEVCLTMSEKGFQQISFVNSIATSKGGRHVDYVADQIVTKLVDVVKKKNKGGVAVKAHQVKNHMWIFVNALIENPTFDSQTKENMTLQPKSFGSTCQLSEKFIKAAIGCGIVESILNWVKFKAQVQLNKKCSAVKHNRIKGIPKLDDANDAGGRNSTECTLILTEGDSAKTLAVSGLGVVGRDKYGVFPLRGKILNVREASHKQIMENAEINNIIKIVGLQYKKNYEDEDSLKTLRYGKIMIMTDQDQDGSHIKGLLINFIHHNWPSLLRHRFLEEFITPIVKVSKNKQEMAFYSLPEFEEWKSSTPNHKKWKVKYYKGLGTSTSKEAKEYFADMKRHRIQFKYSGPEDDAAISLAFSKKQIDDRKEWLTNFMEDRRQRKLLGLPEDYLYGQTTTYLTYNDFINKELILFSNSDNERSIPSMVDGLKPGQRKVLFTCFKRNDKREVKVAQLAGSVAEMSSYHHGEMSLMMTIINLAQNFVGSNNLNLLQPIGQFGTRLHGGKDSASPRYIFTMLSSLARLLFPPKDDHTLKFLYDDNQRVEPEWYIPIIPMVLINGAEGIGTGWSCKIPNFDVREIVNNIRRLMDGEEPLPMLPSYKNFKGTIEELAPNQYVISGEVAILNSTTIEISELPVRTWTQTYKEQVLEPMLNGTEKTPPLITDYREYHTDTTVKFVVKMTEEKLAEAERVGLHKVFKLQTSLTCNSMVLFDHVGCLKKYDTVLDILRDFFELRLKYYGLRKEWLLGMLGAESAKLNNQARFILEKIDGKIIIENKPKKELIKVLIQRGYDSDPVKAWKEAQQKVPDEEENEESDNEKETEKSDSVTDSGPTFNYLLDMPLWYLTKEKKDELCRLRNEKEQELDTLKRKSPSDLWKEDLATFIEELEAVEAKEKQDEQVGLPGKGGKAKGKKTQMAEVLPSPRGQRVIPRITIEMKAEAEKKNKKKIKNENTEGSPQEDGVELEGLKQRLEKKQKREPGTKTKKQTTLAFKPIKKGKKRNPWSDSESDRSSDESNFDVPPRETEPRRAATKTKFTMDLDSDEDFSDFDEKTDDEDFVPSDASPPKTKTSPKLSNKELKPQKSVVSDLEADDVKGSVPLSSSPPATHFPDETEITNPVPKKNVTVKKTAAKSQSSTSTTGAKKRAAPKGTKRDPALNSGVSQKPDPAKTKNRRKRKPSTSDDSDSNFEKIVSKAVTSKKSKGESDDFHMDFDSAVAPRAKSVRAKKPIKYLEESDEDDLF

| SMILES | IC50 (DU-145) [µM] | IC50 (HCT-116) [µM] | IC50 (HL-60) [µM] | inhibition [1] [%] | inhibition [2] [%] | inhibition [3] [%] | IC50 (MDA-MB-231) [µM] | inhibition [4] [%] | IC50 (HeLa) [µM] | inhibition [5] | inhibition [6] [%] |
| --- | --- | --- | --- | --- | --- | --- | --- | --- | --- | --- | --- |
| COc1cccc2c1C(=O)c1c(O)c3c(c(O)c1C2=O)C[C@@](O)(C(=O)CO)C[C@@H]3O[C@H]1C[C@H](N)[C@H](O)[C@H](C)O1 [DOXORUBICIN HYDROCHLORIDE] | 2.47 | 6.81 | 0.32 |  |  |  |  |  |  |  |  |
| O=c1c2ccccc2oc2cc(OCC(O)CNCCCO)cc(O)c12 (centres undefined) | 1.6 | 31.3 | 8.87 | 100 | 62.8 | 38.7 | 6.97 | 3.45 | 19.2 |  |  |
| CCCNCC(O)COc1cc(O)c2c(=O)c3ccccc3oc2c1 (centres undefined) | 0.76 | 23.7 | 4.15 | 100 | 70 | 41.2 | 4.11 | 0 | 11.6 | inactive | 28.5 |
| CC[C@@]1(O)C(=O)OCc2c1cc1n(c2=O)Cc2cc3ccccc3nc2-1 [CAMPTOTHECIN] | 0.31 | 3.97 |  |  |  |  | 0.97 |  |  |  |  |
| O=c1c2ccccc2oc2cc(OCC(O)CSCCO)cc(O)c12 (centres undefined) | 3.47 | 23.9 | 19.9 | 63.8 | 49.1 | 26.3 | 5.13 | 0 | 9.15 |  |  |
| O=c1c2ccccc2oc2cc(OCC(O)CN(CCO)CCO)cc(O)c12 (centres undefined) | 1.59 | 56.7 | 15.9 | 100 | 45.8 | 17.4 | 14.9 | 0 | 15.2 |  |  |
| O=c1c2ccccc2oc2cc(OCC(O)CSCCCO)cc(O)c12 (centres undefined) | 40.9 | > 100 | 27.8 | 68 | 26.1 | 17.5 | 8.4 | 0 | 12.3 |  |  |
| O=c1c2ccccc2oc2cc(OCC(O)CNCCO)cc(O)c12 (centres undefined) | 4.03 | 20 | 9.87 | 100 | 70.3 | 35.5 | 3.55 | 1.08 | 8.43 |  |  |
| O=c1c2ccccc2oc2cc(OCC(O)COCCO)cc(O)c12 (centres undefined) | 15.6 | 46.7 | 16.6 | 89.2 | 43.7 | 23.4 | 10.4 | 0 | 15.4 |  |  |
| COc1cc([C@@H]2c3cc4c(cc3[C@@H](O[C@@H]3O[C@@H]5CO[C@@H](C)O[C@H]5[C@H](O)[C@H]3O)[C@H]3COC(=O)[C@H]23)OCO4)cc(OC)c1O [ETOPOSIDE] | 2.19 | 9.5 | 1.28 | 77.1 |  | 26 | 1.23 |  | 2.36 |  |  |
| CO[C@@H]1[C@@H](OC(N)=O)[C@@H](O)[C@H](Oc2ccc3c(O)c(NC(=O)c4ccc(O)c(CC=C(C)C)c4)c(=O)oc3c2C)OC1(C)C |  |  |  |  |  |  |  |  |  |  | 60.4 |
